Experimental findings from US11634447B2 (priority 2012, dated 2023) are described below.

Each structure is given as a SMILES string.

In the test the test system is bacterial strain LF82 binding to the glycoprotein BSA-(Mannose)3. The test is described as follows: Bacterial Binding Assay (BBA). The test is classed as cell-based, Escherichia coli. To be noted: read-out: Bacterial Binding Assay IC50, LF82/Luciferase strain binding to BSA-(Man)3 coated plates, luminescence. An excerpt: The purpose of the Bacterial Binding Assay (BBA) is to determine the inhibition activity of
selective FimH antagonists on the bacterial strain LF82 binding to the glycoprotein BSA-(Mannose)3.
Below is a list of the Materials used to run the BBA are described below. • 1. LB broth: Supplier: Gibco, #10855 • 2. D-PBS: Supplier: Wisent, #311-425-CL • 3. LB agar plates • 4. 96-well black plate (high binding): Supplier: Costar, #3925 • 5. TopSeal™-A adhesive sealing films; Supplier PerkinElmer, #6005185 • 6. Carbonate-bicarbonate buffer pH 9.6 tablets, Supplier: Medicago, #09-8922-24 • 7. Water, Supplier: Gibco, #15230-162 • 8. Bovine serum albumin (BSA): Supplier: Sigma, #A-7888 • 9. (Man)3-BSA (α1-3, α1-6 Mannotriose-BSA, 1 mg), V-Labs, #NGP1336, lot #HGDX37-169-1 • 10. Tween 20: Supplier: Sigma, #P9416 • 11. Bright-Glo Luciferase Assay System: Supplier: Promega, #E2610 • 12. LF82/Luciferase strain: Invasive ability of an Escherichia coli strain isolated from the ileal mucosa of a patient with Crohn ? disease. Boudeau J, Glasser A L, Masseret E, Joly B, Darfeuille-Michaud A, Infect Immun. 1999, 67(9), 4499-509
Solutions and buffers used to run the BBA are described below. • 1. 0.04M carbonate-bicarbonate buffer (coating buffer) • 2. 40 μg/mL BSA-(Man)3: Dissolve 1 mg of (Man)3-BSA in 25 mL of water. • 3. 4000 μg/mL BSA • 4. 40 μg/mL BSA • 5. 1 μg/mL BSA-(Man)3: 150 μL of 40 μg/mL BSA-(Man)3+5.85 mL of 40 μg/mL BSA • 6. 0.5 μg/mL BSA-(Man)3 in 0.02M carbonate-bicarbonate buffer. • 7. 20 μg/mL BSA in 0.02M carbonate-bicarbonate buffer • 8. Blocking buffer (2% BSA/DPBS): 1 g of BSA in 50 mL D-PBS • 9. 2× binding buffer (0.2% BSA/D-PBS): 5 mL of blocking buffer+45 mL D-PBS. • 10. Washing buffer (D-PBS/0.01% Tween 20): 10 μL of Tween 20 in 100 mL D-PBS. • 11. 1× Bright-Glo Luciferase substrate: Dilute 1:1 the Bright-Glo Luciferase Assay System with D-PBS The experimental protocol to run the BBA is described below.
Overnight culture of LF82/Luciferase strain: Into two Falcon 50 mL tubes, add 20 mL of LB+20 μL of 50 mg/mL Kanamycin and inoculate with a loop from glycerol stock of the LF82/Luciferase strain. Incubate overnight at 37° C. with no shaking.
Glycoprotein coating of 96-well plates: Add 100 μL/well of 0.5-2 μg/mL BSA-(Man)3. 20 μg/mL BSA is used as the control background. Seal plate using an adhesive sealing film and incubate overnight at room temperature. Wash the 96-well plate three times with 150 μL/well of D-PBS, add 170 μL/well of blocking solution and incubate 45 min (minimum) at room temperature.
Preparation of bacterial suspension: Mix the two cultures tubes (40 mL) and perform a 1:10 dilution in LB (900 μl LB+100 μl culture. Measure optical density (OD) of the bacterial cultures. OD1 ˜5×10^8 cells/mL. Centrifuge LF82 culture for 20 min at 3500 rpm at room temperature. Re-suspend bacterial pellet in D-PBS and centrifuge again for 20 min at 3500 rpm. Re-suspend bacterial pellet in D-PBS to obtain a bacterial concentration of 2×10^9 bacteria/mL. Dilute 1/10 in D-PBS to obtain a final bacterial concentration of 2×10^8 bacteria/mL (=107 bacteria/50 μL). Perform 1/10 serial dilutions in LB of each bacterial suspension, plate 10 μL of dilutions on LB agar plates (final dilutions of 10^−7) and incubate overnight at 37° C. and count CFUs to determine the actual bacteria density in the assay.
Bacterial binding assay: Add 147 μL 2× binding buffer to compound plate (containing 3 μL of compound). After blocking step is performed (at least 45 min), wash plates three times with 200 μL/well of D-PBS. With a 100 μL multichannel manual pipettor, add 50 µL/well of compound diluted in 2× binding buffer. With a 100 μL multichannel manual pipettor, add 50 μL/well of bacterial suspension. Agitate at slow speed for 1 min and incubate 40-75 min at room temperature. Wash 5 times with 150 μL/well of washing buffer and then once with D-PBS. Add 100 μL/well of 1× Bright-Glo Luciferase substrate. […]
On to `COCc1cc(C#C[C@H]2O[C@H](CO)[C@@H](O)[C@H](O)[C@@H]2O)ccc1C#C[C@H]1O[C@H](CO)[C@@H](O)[C@H](O)[C@@H]1O` [Compound 79, (2R,3S,4R,5S,6R)-2-(hydroxymethyl)-6-[2-[3-(methoxymethyl)-4-[2-[(2R,3S,4R,5S,6R)-3,4,5-trihydroxy-6-(hydroxymethyl)tetrahydropyran-2-yl]ethynyl]phenyl]ethynyl]tetrahydropyran-3,4,5-triol], for which the IC50 turned out to be 37 nM.
With `OC[C@H]1O[C@H](C#Cc2ccc3c(c2)C2(CCC(O)CC2)c2cc(C#C[C@H]4O[C@H](CO)[C@@H](O)[C@H](O)[C@@H]4O)ccc2-3)[C@@H](O)[C@@H](O)[C@@H]1O` (stereo partly drawn) [Compound 203], the IC50 is 0.04 nM.
In the case of `OC[C@H]1O[C@H](C#Cc2ccc3c(c2)c2cc(C#C[C@H]4O[C@H](CO)[C@@H](O)[C@H](O)[C@@H]4O)ccc2n3-c2ccccc2)[C@@H](O)[C@@H](O)[C@@H]1O` [Compound 164], the IC50 came to 35 nM.
As to `OC[C@H]1O[C@H](C#Cc2cc3cc(C#C[C@H]4O[C@H](CO)[C@@H](O)[C@H](O)[C@@H]4O)sc3s2)[C@@H](O)[C@@H](O)[C@@H]1O` [Compound 123, (2R,3S,4R,5S,6R)-2-(hydroxymethyl)-6-[2-[5-[2-[(2R,3S,4R,5S,6R)-3,4,5-trihydroxy-6-(hydroxymethyl)tetrahydropyran-2-yl]ethynyl]thieno[2,3-b]thiophen-2-yl]ethynyl]tetrahydropyran-3,4,5-triol], the IC50 stood at 41 nM.
In the case of `OCCC1(O)c2cc(C#C[C@H]3O[C@H](CO)[C@@H](O)[C@H](O)[C@@H]3O)ccc2-c2ccc(C#C[C@H]3O[C@H](CO)[C@@H](O)[C@H](O)[C@@H]3O)cc21` [Compound 216, (2R,3S,4R,5S,6R)-2-[2-[9-hydroxy-9-(2-hydroxyethyl)-7-[2-[(2R,3S,4R,5S,6R)-3,4,5-trihydroxy-6-(hydroxymethyl)tetrahydropyran-2-yl]ethynyl]fluoren-2-yl]ethynyl]-6-(hydroxymethyl)tetrahydropyran-3,4,5-triol], the IC50 was determined as 9.9 nM.
In the case of `O=C(O)Cn1c2cc(C#C[C@H]3O[C@H](CO)[C@@H](O)[C@H](O)[C@@H]3O)ccc2c2ccc(C#C[C@H]3O[C@H](CO)[C@@H](O)[C@H](O)[C@@H]3O)cc21` [Compound 176, 2-[2,7-Bis[2-[(2R,3S,4R,5S,6R)-3,4,5-trihydroxy-6-(hydroxymethyl)tetrahydropyran-2-yl]ethynyl]carbazol-9-yl]acetic acid] it was 10 nM; in that of `CCc1cc(C#C[C@H]2O[C@H](CO)[C@@H](O)[C@H](O)[C@@H]2O)cc(CC)c1C#C[C@H]1O[C@H](CO)[C@@H](O)[C@H](O)[C@@H]1O` [Compound 73], 21 nM; in that of `OCC(O)CC1(O)c2cc(C#C[C@H]3O[C@H](CO)[C@@H](O)[C@H](O)[C@@H]3O)ccc2-c2ccc(C#C[C@H]3O[C@H](CO)[C@@H](O)[C@H](O)[C@@H]3O)cc21` (stereo partly drawn) [Compound 196, (2R,3S,4R,5S,6R)-2-[2-[9-(2,3-dihydroxypropyl)-9-hydroxy-7-[2-[(2R,3S,4R,5S,6R)-3,4,5-trihydroxy-6-(hydroxymethyl)tetrahydropyran-2-yl]ethynyl]fluoren-2-yl]ethynyl]-6-(hydroxymethyl)tetrahydropyran-3,4,5-triol], 28 nM.
Take `Cc1cc(C#C[C@H]2O[C@H](CO)[C@@H](O)[C@H](O)[C@@H]2O)c(C)cc1C#C[C@H]1O[C@H](CO)[C@@H](O)[C@H](O)[C@@H]1O` [Compound 97, (2R,3S,4R,5S,6R)-2-[2-[2,5-dimethy1-4-[2-[(2R,3S,4R,5S,6R)-3,4,5-trihydroxy-6-(hydroxymethyl)tetrahydropyran-2-yl]ethynyl]phenyl]ethynyl]-6-(hydroxymethyl)tetrahydropyran-3,4,5-triol]: the IC50 was 24 nM.
In the case of `Cc1cccc(C(=O)c2c(C#C[C@H]3O[C@H](CO)[C@@H](O)[C@H](O)[C@@H]3O)ccc3c2C2(CCNCC2)c2cc(C#C[C@H]4O[C@H](CO)[C@@H](O)[C@H](O)[C@@H]4O)ccc2-3)n1` [Compound 239, [2,7-bis[2-[(2R,3S,4R,5S,6R)-3,4,5-trihydroxy-6-(hydroxymethyl)tetrahydropyran-2-yl]ethynyl]spiro[fluorene-9,4piperidine]-1yl]-(6-methyl-2-pyridyl)methanone], the IC50 stood at 0.35 nM.
In the case of `OC[C@H]1O[C@H](C#Cc2ccc3c(c2)C(O)(CC2CCCCC2)c2cc(C#C[C@H]4O[C@H](CO)[C@@H](O)[C@H](O)[C@@H]4O)ccc2-3)[C@@H](O)[C@@H](O)[C@@H]1O` (stereo partly drawn) [Compound 215, (2R,3S,4R,5S,6R)-2-[2-[9-(cyclohexylmethyl)-9-hydroxy-7-[2-[(2R,3S,4R,5S,6R)-3,4,5-trihydroxy-6-(hydroxymethyl)tetrahydropyran-2-yl]ethynyl]fluoren-2-yl]ethynyl]-6-(hydroxymethyl)tetrahydropyran-3,4,5-triol] it was 5 nM.
For `Cc1cc(-c2ccc(-c3ccc([C@H]4O[C@H](CO)[C@@H](O)[C@H](O)[C@@H]4O)c(C)c3)nc2)ccc1[C@H]1O[C@H](CO)[C@@H](O)[C@H](O)[C@@H]1O` [Compound 157, (2R,3S,4R,5S,6R)-2-(hydroxymethyl)-6-[2-methyl-4-[6-[3-methyl-4-[(2R,3S,4R,5S,6R)-3,4,5-trihydroxy-6-(hydroxymethyl)tetrahydropyran-2-yl]phenyl]-3-pyridyl]phenyl]tetrahydropyran-3,4,5-triol] the value was 10 nM.
For `Cc1cc(/C=C/c2ccc([C@H]3O[C@H](CO)[C@@H](O)[C@H](O)[C@@H]3O)c(C)c2)ccc1[C@H]1O[C@H](CO)[C@@H](O)[C@H](O)[C@@H]1O` [Compound 159, (2R,3S,4R,5S,6R)-2-(hydroxymethyl)-6-[2-methyl-4-[(E)-2-[3-methyl-4-[(2R,3S,4R,5S,6R)-3,4,5-trihydroxy-6-(hydroxymethyl)tetrahydropyran-2-yl]phenyl]vinyl]phenyl]tetrahydropyran-3,4,5-triol] the value was 46 nM; for `O=C(O)CCC1(CCO)c2cc(C#C[C@H]3O[C@H](CO)[C@@H](O)[C@H](O)[C@@H]3O)ccc2-c2ccc(C#C[C@H]3O[C@H](CO)[C@@H](O)[C@H](O)[C@@H]3O)cc21` [Compound 219, 3-[9-(2-hydroxyethyl)-2,7-bis[2-[(2R,3S,4R,5S,6R)-3,4,5-trihydroxy-6-(hydroxymethyl)tetrahydropyran-2-yl]ethynyl]fluoren-9-yl]propanoic acid], 3.8 nM.
Consider `Cc1cc([C@H]2O[C@H](CO)[C@@H](O)[C@H](O)[C@@H]2O)ccc1-c1ccc([C@H]2O[C@H](CO)[C@@H](O)[C@H](O)[C@@H]2O)c(C)c1` [Compound 149], for which the IC50 was 27 nM.
